Test results published in patent publication US9845295B2, “Triphenylethylene compounds and uses thereof” (Purdue Research Foundation, priority 2015, dated 2017).

Key:
[1] = tested on: progesterone receptor (PGR) mRNA expression in MCF-7 human breast cancer cells; assay: Antagonism of β-estradiol-stimulated progesterone receptor (PGR) mRNA expression in MCF-7 cells; format: cell-based; conditions: 1 μM compound, 24 h, 10 nM E2 alone set as 100%
Experimental: To investigate the effects of ligand binding on ER-mediated transcriptional activities, the triphenylethylene bisphenols were tested for their abilities to antagonize β-estradiol (E2) in a functional assay. […] In this commonly used assay, the progesterone receptor (PGR) mRNA expression is used for assessing estrogenic or antiestrogenic activity in MCF-7 human breast cancer cells. […] The PGR mRNA expression level with 10 nM E2 stimulation alone was set as 100%, and the antiestrogenic effects of the compounds was monitored by the reduction of β-estradiol-stimulated mRNA levels.
Cell Culture and Test Compound Treatment. […]
The MCF-7 cells treated with test compounds or experimental controls for 24 h were harvested for progesterone receptor (PGR) messenger ribonucleic acid (mRNA) extraction. […] The RNA concentration was measured using the Qubit RNA BR assay (Life Technologies Corp., Carlsbad, Calif.) for the Qubit 2.0 fluorometer (Life Technologies Corp., Carlsbad, Calif.). […]
Complementary deoxyribonucleic acid (cDNA) for the real-time quantitative polymerase chain reaction (PCR) assay was synthesized from DNase-treated total RNA using the QuantiTect reverse transcription kit (QiagenInc., Valencia, Calif., USA).
Real-Time Quantitative Polymerase Chain Reaction (PCR) for cDNA. […]

[2] = tested on: postmenopausal women with breast cancer; conditions: five-year ATAC trial; cited from earlier work
recombinant human ER-α = target: T1, recombinant human ER-α (Homo sapiens, UniProt P03372); assay: Binding affinity for recombinant human ER-α (fluorescence polarization, ES2 displacement)
T1 construct: purchased Invitrogen (Carlsbad, Calif.)
T1 sequence (P03372 1-595): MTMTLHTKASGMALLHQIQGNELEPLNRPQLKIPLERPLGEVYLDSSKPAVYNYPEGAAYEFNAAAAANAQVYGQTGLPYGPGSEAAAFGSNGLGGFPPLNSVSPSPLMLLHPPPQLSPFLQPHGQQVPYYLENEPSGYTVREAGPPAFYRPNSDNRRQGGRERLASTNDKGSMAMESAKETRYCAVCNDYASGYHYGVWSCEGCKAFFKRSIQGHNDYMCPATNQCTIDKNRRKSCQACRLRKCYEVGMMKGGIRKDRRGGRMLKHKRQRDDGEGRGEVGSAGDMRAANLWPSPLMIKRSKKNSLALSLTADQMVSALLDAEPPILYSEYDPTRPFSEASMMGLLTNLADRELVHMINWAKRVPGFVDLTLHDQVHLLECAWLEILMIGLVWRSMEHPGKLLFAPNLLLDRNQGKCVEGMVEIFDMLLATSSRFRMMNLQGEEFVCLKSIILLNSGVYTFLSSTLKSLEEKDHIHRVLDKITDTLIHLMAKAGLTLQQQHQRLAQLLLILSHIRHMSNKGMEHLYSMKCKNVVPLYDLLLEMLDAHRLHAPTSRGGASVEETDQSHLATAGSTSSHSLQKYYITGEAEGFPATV
Experimental: (§1) Binding Affinities for Recombinant Human ER-α and ER-β.
(§2) The binding affinities of ER-α and ER-β were determined by measuring the change of polarization value when the fluorescent estrogen ligand, ES2, was displaced by the tested compounds. Experimental procedures were consistent with the protocol provided by Invitrogen. The fluorescent estrogen ligand, ES2, was provided in methanol/water (4:1, v/v) with the concentration of 1800 nM. Recombinant human ER-α and ER-β were provided in buffer (50 mM bis-tris propane, 400 mM KCl, 2 mM DTT, 1 mM EDTA and 10% glycerol), with the concentration of 734 nM and 3800 nM, respectively. All tested samples were dissolved in either methanol or DMSO. The sample solutions (1 pt) were mixed well with 49 pt of ES2 screening buffer (100 mM potassium phosphate, 100 μg/mL BGG and 0.02% NaN3). The ER-α/ES2 complex was prepared with the fluorescent estrogen ligand ES2, human recombinant ER and ES2 screening buffer with the concentrations of 9 nM ES2 and 30 nM ER-α. The ER-β/ES2 complex was prepared with the fluorescent estrogen ligand ES2, human recombinant ER-β and ES2 screening buffer with the concentrations of 9 nM ES2 and 20 nM ER-ft Reactions were initiated by adding ER/ES2 complex (50 μL) to bring the incubation volume to 100 μL and incubated for 2 h avoiding light. […] Excitation-emission wavelengths for fluorescence polarization were […]. The polarization values in the presence of the test competitors were compared with those in control, in which the competitor was replaced with vehicle. The extent of competition was expressed as the percentage of remaining polarization compared to the control.

[3] = target: T2, recombinant human aromatase (CYP19) (Homo sapiens, UniProt P11511); assay: Inhibition of recombinant human aromatase (CYP19) by microsomal incubations (MFC fluorometric substrate); format: biochemical
T2 construct: purchased BD Biosciences (San Jose, Calif.)
T2 sequence (P11511 1-503): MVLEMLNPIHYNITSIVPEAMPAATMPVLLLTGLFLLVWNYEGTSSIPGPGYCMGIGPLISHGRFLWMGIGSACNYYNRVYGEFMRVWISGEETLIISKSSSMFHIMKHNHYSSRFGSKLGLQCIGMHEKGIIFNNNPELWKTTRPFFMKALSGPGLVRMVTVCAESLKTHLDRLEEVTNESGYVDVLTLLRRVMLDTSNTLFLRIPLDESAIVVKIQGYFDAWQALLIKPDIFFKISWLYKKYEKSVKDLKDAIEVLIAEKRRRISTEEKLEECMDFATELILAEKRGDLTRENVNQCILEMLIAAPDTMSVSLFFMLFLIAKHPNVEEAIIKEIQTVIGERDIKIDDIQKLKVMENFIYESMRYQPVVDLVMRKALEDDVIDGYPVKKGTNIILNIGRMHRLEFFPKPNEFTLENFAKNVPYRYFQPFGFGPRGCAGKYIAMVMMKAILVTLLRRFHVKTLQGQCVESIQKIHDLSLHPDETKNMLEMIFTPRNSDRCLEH
Experimental: Inhibition of Recombinant Human Aromatase (CYP19) by Microsomal Incubations.
All tested samples were dissolved in either methanol or DMSO. […] All the reactions were stopped by adding 0.1 M tris base dissolved in acetonitrile (75 μL). […] The extent of enzyme inhibition was expressed as the percentage of remaining enzyme activity compared to the control.

ER in MCF-7-2a cells = conditions: in words; cited from earlier work
recombinant human ER-β = target: T3, recombinant human ER-β (Homo sapiens, UniProt Q92731); assay: Binding affinity for recombinant human ER-β (fluorescence polarization, ES2 displacement); conditions: Table 1; determined only for compounds with >90% competition
T3 construct: purchased Invitrogen (Carlsbad, Calif.)
Experimental: as §1, §2

[4] = Table 1, mean of at least three experiments

T3 sequence (Q92731 whole entry): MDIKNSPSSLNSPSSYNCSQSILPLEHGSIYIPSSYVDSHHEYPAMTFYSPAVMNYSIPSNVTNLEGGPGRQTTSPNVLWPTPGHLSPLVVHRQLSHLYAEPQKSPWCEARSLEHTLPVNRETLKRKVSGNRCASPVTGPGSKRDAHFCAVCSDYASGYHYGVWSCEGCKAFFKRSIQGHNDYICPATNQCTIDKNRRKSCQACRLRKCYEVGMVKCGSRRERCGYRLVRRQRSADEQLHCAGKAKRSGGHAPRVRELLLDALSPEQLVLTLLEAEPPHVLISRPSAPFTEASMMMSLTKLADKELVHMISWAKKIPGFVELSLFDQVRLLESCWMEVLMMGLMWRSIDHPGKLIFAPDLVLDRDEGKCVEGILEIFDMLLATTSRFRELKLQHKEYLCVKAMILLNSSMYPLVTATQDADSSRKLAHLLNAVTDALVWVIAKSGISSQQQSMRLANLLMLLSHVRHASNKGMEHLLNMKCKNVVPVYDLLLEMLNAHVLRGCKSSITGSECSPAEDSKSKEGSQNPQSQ

In the case of `CC/C(=C(\c1ccc(O)cc1)c1ccc(OCCN)cc1)c1ccccc1` [(E,Z)-norendoxifen], the “PGR mRNA expression level in the presence of 10 nM E2” value [1] is reported as 33%.

In the case of `CC(C)(C#N)c1cc(Cn2cncn2)cc(C(C)(C)C#N)c1` [anastrozole], the “improvement of disease-free survival compared to tamoxifen” value [2] is given as 13%, the “reduction in occurrence of contralateral breast cancer compared to tamoxifen” value [2] is given as 42% and the “reduction in risk of distant metastasis compared to tamoxifen” value [2] is given as 16%. The “reduction in the rate of recurrence compared to tamoxifen” value [2] was 21%.

For `CC/C(=C(\c1ccc(O)cc1)c1ccc(OCCNC)cc1)c1ccccc1` [Endoxifen], the “PGR mRNA expression level in the presence of 10 nM E2” value [1] was 10%.

In the case of `CCC(=C(c1ccc(O)cc1)c1ccc(O)cc1)c1ccccc1` [Compound 7, reference compound], the ER-α percent competition (recombinant human ER-α; Table 2, at 100000 nM compound) is listed as 80% competition, the IC50 ([3]; Table 2, determined for compounds with inhibition higher than 90%) is listed as 24900 ± 1400 nM and the “ER antagonism / agonism in MCF-7-2a cells” value (ER in MCF-7-2a cells) is listed as “good ER antagonist without significant agonistic side effects”. For the same compound, the EC50 (recombinant human ER-β) was 307 ± 106 nM.

In the case of `Oc1ccc(C(=C(Cn2ccnc2)c2ccccc2)c2ccc(O)cc2)cc1` [Compound 12, 4,4′-(3-(1H-Imidazol-1-yl)-2-phenylprop-1-ene-1,1-diyl)diphenol], the EC50 (recombinant human ER-α; Table 1, determined only for compounds with >90% competition) is reported as 27.3 nM, the IC50 [3, 4] is reported as 4.77 ± 0.38 nM and the “fold improvement/increase in aromatase inhibitory activity compared with 7” value ([3]; vs compound 7) is reported as over 5000 fold. It also gave a melting point of 225 to 227 °C and an EC50 (recombinant human ER-β) of 40.9 nM.

`N#CCC(=C(c1ccc(O)cc1)c1ccc(O)cc1)c1ccc(O)c(F)c1` [Compound 17b, 3-(3-Fluoro-4-hydroxyphenyl)-4,4-bis(4-hydroxyphenyl)but-3-enenitrile] gave an ER-α percent competition (recombinant human ER-α; Table 1, at 100 μM compound) of 0% competition, an IC50 [3, 4] of 17200 ± 2200 nM and a melting point of 180 to 183 °C.
